Biological target: human PAD4 (hPAD4) (Homo sapiens, UniProt Q9UM07)
Assay: RFMS Human PAD4 Functional Assay
Type: biochemical
Conditions: hPAD4 RFMS IC50, human PAD4, rapid-fire mass spectrum (RFMS) assay; 5 nM hPAD4, 250 μM BAEE
Method in brief: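 RapidFire ESI-MS quantification, normalised to a modified-citrulline internal standard, after phenyl glyoxal (final 4 mM) derivatisation of the TCA-quenched reaction. The enzyme (10 nM) sat 30 min with compound (up to 50 μM final) before 500 μM BAEE (as added) started a 90 min, 37 °C reaction. Buffer: HEPES pH 7.5, 50 μM calcium, 5 μM TPEN.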

Sequence of human PAD4 (hPAD4) (Q9UM07 whole entry): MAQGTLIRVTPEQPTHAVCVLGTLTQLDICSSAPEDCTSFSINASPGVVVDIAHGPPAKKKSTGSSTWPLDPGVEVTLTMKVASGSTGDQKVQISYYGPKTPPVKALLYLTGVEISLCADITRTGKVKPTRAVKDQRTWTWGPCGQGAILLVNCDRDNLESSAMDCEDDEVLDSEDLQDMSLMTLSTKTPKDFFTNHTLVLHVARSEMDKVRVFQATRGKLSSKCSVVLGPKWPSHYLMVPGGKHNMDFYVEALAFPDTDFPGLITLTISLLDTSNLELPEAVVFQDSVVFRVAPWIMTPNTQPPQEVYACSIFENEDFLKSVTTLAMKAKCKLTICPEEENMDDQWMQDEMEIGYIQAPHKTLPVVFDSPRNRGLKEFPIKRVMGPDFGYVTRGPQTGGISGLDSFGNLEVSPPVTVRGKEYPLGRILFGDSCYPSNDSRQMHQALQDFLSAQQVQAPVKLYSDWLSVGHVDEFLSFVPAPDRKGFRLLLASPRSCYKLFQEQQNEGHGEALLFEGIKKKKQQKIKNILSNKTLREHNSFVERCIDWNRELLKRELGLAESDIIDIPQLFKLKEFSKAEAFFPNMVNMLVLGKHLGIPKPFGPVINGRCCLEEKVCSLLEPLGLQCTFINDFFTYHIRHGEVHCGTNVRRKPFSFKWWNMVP

IC50 [nM]	SMILES
178	COc1cc(C(=O)N2CC3CCC2[C@@H]3N)cc2nc(-c3cc4cccc(-c5ccco5)c4n3CC3CC3)n(C)c12 (stereo partly drawn) [Example 130, ((7R)-7-amino-2-azabicyclo[2.2.1]heptan-2-yl)(2-(1-(cyclopropylmethyl)-7-(furan-2-yl)-1H-indol-2-yl)-7-methoxy-1-methyl-1H-benzo[d]imidazol-5-yl)methanone]
156	COc1cc(C(=O)N2C[C@H]3CC[C@@H]2[C@@H]3N)cc2nc(-c3cc4cccc(-c5cccs5)c4n3CC3CC3)n(C)c12 [Example 131, ((1R,4R,7R)-7-amino-2-azabicyclo[2.2.1]heptan-2-yl)(2-(1-(cyclopropylmethyl)-7-(thiophen-2-yl)-1H-indol-2-yl)-7-methoxy-1-methyl-1H-benzo[d]imidazol-5-yl)methanone]
179	COc1cc(C(=O)N2CC3CCC2[C@@H]3N)cc2nc(-c3cc4cccc(-c5cnn(C6CCOCC6)c5)c4n3CC3CC3)n(C)c12 (stereo partly drawn) [Example 132, ((7R)-7-amino-2-azabicyclo[2.2.1]heptan-2-yl)(2-(1-(cyclopropylmethyl)-7-(1-(tetrahydro-2H-pyran-4-yl)-1H-pyrazol-4-yl)-1H-indol-2-yl)-7-methoxy-1-methyl-1H-benzo[d]imidazol-5-yl)methanone]
121	COc1cc(C(=O)N2CC3CCC2[C@@H]3N)cc2nc(-c3cc4cccc(-c5ccc(NC(C)=O)cc5)c4n3CC3CC3)n(C)c12 (stereo partly drawn) [Example 133, N-(4-(2-(5-((7R)-7-amino-2-azabicyclo[2.2.1]heptane-2-carbonyl)-7-methoxy-1-methyl-1H-benzo[d]imidazol-2-yl)-1-(cyclopropylmethyl)-1H-indol-7-yl)phenyl)acetamide]
155	COc1cc(C(=O)N2CC3CCC2[C@@H]3N)cc2nc(-c3cc4cccc(-c5cccnc5)c4n3CC3CC3)n(C)c12 (stereo partly drawn) [Example 134, ((7R)-7-amino-2-azabicyclo[2.2.1]heptan-2-yl)(2-(1-(cyclopropylmethyl)-7-(pyridin-3-yl)-1H-indol-2-yl)-7-methoxy-1-methyl-1H-benzo[d]imidazol-5-yl)methanone]
96	COc1cc(C(=O)N2CC3CCC2[C@@H]3N)cc2nc(-c3cc4cccc(-c5cn(C)nc5-c5ccccc5F)c4n3CC3CC3)n(C)c12 (stereo partly drawn) [Example 135, ((7R)-7-amino-2-azabicyclo[2.2.1]heptan-2-yl)(2-(1-(cyclopropylmethyl)-7-(3-(2-fluorophenyl)-1-methyl-1H-pyrazol-4-yl)-1H-indol-2-yl)-7-methoxy-1-methyl-1H-benzo[d]imidazol-5-yl)methanone]
77	COc1cc(C(=O)N2CC3CCC2[C@@H]3N)cc2nc(-c3cc4cccc(-c5cccc(CO)c5)c4n3CC3CC3)n(C)c12 (stereo partly drawn) [Example 136, ((7R)-7-amino-2-azabicyclo[2.2.1]heptan-2-yl)(2-(1-(cyclopropylmethyl)-7-(3-(hydroxymethyl)phenyl)-1H-indol-2-yl)-7-methoxy-1-methyl-1H-benzo[d]imidazol-5-yl)methanone]
37	COc1cc(C(=O)N2C[C@H]3CC[C@@H]2[C@@H]3N)cc2nc(-c3cc4cccc(-c5cn[nH]c5)c4n3CC3CC3)n(C)c12 [Example 137, ((1R,4R,7R)-7-amino-2-azabicyclo[2.2.1]heptan-2-yl)(2-(1-(cyclopropylmethyl)-7-(1H-pyrazol-4-yl)-1H-indol-2-yl)-7-methoxy-1-methyl-1H-benzo[d]imidazol-5-yl)methanone]
147	COc1cc(C(=O)N2C[C@H]3CC[C@@H]2[C@@H]3N)cc2nc(-c3cc4cccc(-c5cnn(C[C@@H](C)O)c5)c4n3CC3CC3)n(C)c12 [Example 138, ((1R,4R,7R)-7-amino-2-azabicyclo[2.2.1]heptan-2-yl)(2-(1-(cyclopropylmethyl)-7-(1-((R)-2-hydroxypropyl)-1H-pyrazol-4-yl)-1H-indol-2-yl)-7-methoxy-1-methyl-1H-benzo[d]imidazol-5-yl)methanone]
